The values that follow come from ChEMBL document CHEMBL1697731, “Cheminformatics analysis of assertions mined from literature that describe drug-induced liver injury in different species” (Chem Res Toxicol, 2010).

The structures appear in SMILES notation.

Series [1] concerns Hepatotoxicity. In words: Literature-mined compound from Fourches et al multi-species drug-induced liver injury (DILI) dataset, effect in humans. The note with it: human.
Series [2] deals with Hepatotoxicity. In words: Literature-mined compound from Fourches et al multi-species drug-induced liver injury (DILI) dataset, effect in non-rodents.
Series [3] has as its system Hepatotoxicity. In words: Literature-mined compound from Fourches et al multi-species drug-induced liver injury (DILI) dataset, effect in rodents. The note with it: rodentia.

`O=C(c1ccc(F)cc1)C1CCN(CCn2c(=O)[nH]c3ccccc3c2=O)CC1` [KETANSERIN]: the Hepatotoxicity result was “drug-induced liver injury reported” in the series with Hepatotoxicity [1], “no drug-induced liver injury reported” in the series on Hepatotoxicity [2] and “drug-induced liver injury reported” with Hepatotoxicity [3].

As to `CC(C)(C)NC(=O)[C@@H]1CN(Cc2cccnc2)CCN1C[C@@H](O)C[C@@H](Cc1ccccc1)C(=O)N[C@H]1c2ccccc2C[C@H]1O.O`, the Hepatotoxicity entry was “drug-induced liver injury reported” in the series with Hepatotoxicity [1], “no drug-induced liver injury reported” in the series with Hepatotoxicity [2] and “drug-induced liver injury reported” in the series with Hepatotoxicity [3].

On to `CN(C(=O)CN(CCO)CC(=O)N(C)C(C)(C)Cc1ccccc1)C(C)(C)Cc1ccccc1` [OXETHAZAINE], for which the figures for the Hepatotoxicity entry in the series with Hepatotoxicity [1], in the series with Hepatotoxicity [2] and with Hepatotoxicity [3] were “no drug-induced liver injury reported”, “no drug-induced liver injury reported” and “drug-induced liver injury reported”, respectively.

In the case of `C[C@H](CS)C(=O)N1CCC[C@H]1C(=O)O` [CAPTOPRIL], the Hepatotoxicity entry with Hepatotoxicity [1] is reported as “drug-induced liver injury reported”; with Hepatotoxicity [2], “no drug-induced liver injury reported”; in the series on Hepatotoxicity [3], “drug-induced liver injury reported”.

Regarding `C[C@H](N[C@@H](CCc1ccccc1)C(=O)O)C(=O)N1CCC[C@H]1C(=O)O` [ENALAPRILAT ANHYDROUS], the results for the Hepatotoxicity entry with Hepatotoxicity [1], with Hepatotoxicity [2] and with Hepatotoxicity [3] were “drug-induced liver injury reported”, “no drug-induced liver injury reported” and “no drug-induced liver injury reported”, respectively.

Regarding `CN1C(C(=O)Nc2ccccn2)=C(O)c2sc(Cl)cc2S1(=O)=O` [LORNOXICAM], the Hepatotoxicity result in the series on Hepatotoxicity [1] is “drug-induced liver injury reported”; in the series with Hepatotoxicity [2], “no drug-induced liver injury reported”; with Hepatotoxicity [3], “no drug-induced liver injury reported”.

For `O=C(OOC(=O)c1ccccc1)c1ccccc1` [BENZOYL PEROXIDE], the figures for the Hepatotoxicity entry in the series on Hepatotoxicity [1], in the series on Hepatotoxicity [2] and in the series with Hepatotoxicity [3] were “no drug-induced liver injury reported”, “no drug-induced liver injury reported” and “drug-induced liver injury reported”, respectively.

`CCCCCCCCCCCCS[C@H](C(=O)Nc1cc(C)c(O)c(C)c1C)c1ccccc1` [EFLUCIMIBE]: the Hepatotoxicity entry with Hepatotoxicity [1] is “no drug-induced liver injury reported”; in the series on Hepatotoxicity [2], “drug-induced liver injury reported”; with Hepatotoxicity [3] it was “no drug-induced liver injury reported”.

On to `C=CCN1CC[C@]23c4c5ccc(O)c4O[C@H]2[C@@H](O)C=C[C@H]3[C@H]1C5` [NALORPHINE], for which the Hepatotoxicity entry with Hepatotoxicity [1] is “no drug-induced liver injury reported”; with Hepatotoxicity [2] it was “no drug-induced liver injury reported”; in the series on Hepatotoxicity [3], “drug-induced liver injury reported”.

As to `CN(C)CCOC(=O)COc1ccc(Cl)cc1` [MECLOFENOXATE], the Hepatotoxicity result in the series with Hepatotoxicity [1] is “no drug-induced liver injury reported”; with Hepatotoxicity [2], “no drug-induced liver injury reported”; in the series on Hepatotoxicity [3], “drug-induced liver injury reported”.

Turning to `C=CCC1(C(C)C)C(=O)NC(=O)NC1=O` [APROBARBITAL], the Hepatotoxicity entry was “no drug-induced liver injury reported” in the series on Hepatotoxicity [1], “no drug-induced liver injury reported” in the series on Hepatotoxicity [2] and “drug-induced liver injury reported” with Hepatotoxicity [3].

With `OCCN1CCN(CCCN2c3ccccc3Sc3ccc(Cl)cc32)CC1` [PERPHENAZINE], the figures for the Hepatotoxicity result with Hepatotoxicity [1], in the series on Hepatotoxicity [2] and with Hepatotoxicity [3] were “no drug-induced liver injury reported”, “no drug-induced liver injury reported” and “drug-induced liver injury reported”, respectively.

On to `N[C@@H](Cc1ccc(N(CCCl)CCCl)cc1)C(=O)O`, for which the Hepatotoxicity result with Hepatotoxicity [1] is reported as “drug-induced liver injury reported”; with Hepatotoxicity [2] it was “no drug-induced liver injury reported”; in the series with Hepatotoxicity [3], “drug-induced liver injury reported”.

With `Nc1nc(Cl)nc2c1ncn2[C@H]1C[C@H](O)[C@@H](CO)O1` [CLADRIBINE], the figures for the Hepatotoxicity result in the series with Hepatotoxicity [1], in the series with Hepatotoxicity [2] and with Hepatotoxicity [3] were “drug-induced liver injury reported”, “no drug-induced liver injury reported” and “no drug-induced liver injury reported”, respectively.

`CN(c1nccc(=O)[nH]1)C1CCN(c2nc3ccccc3n2Cc2ccc(F)cc2)CC1` [MIZOLASTINE]: the Hepatotoxicity entry in the series on Hepatotoxicity [1] is given as “drug-induced liver injury reported”; in the series with Hepatotoxicity [2], “no drug-induced liver injury reported”; in the series with Hepatotoxicity [3], “no drug-induced liver injury reported”.

In the case of `O=C1OC(c2ccc(O)cc2)(c2ccc(O)cc2)c2ccccc21` [PHENOLPHTHALEIN], the results for the Hepatotoxicity result in the series on Hepatotoxicity [1], with Hepatotoxicity [2] and with Hepatotoxicity [3] were “no drug-induced liver injury reported”, “no drug-induced liver injury reported” and “drug-induced liver injury reported”, respectively.

Regarding `Cc1ccc(S(=O)(=O)[N-]Cl)cc1.[Na+]` [CHLORAMINE-T ANHYDROUS], the Hepatotoxicity entry in the series with Hepatotoxicity [1] is recorded as “no drug-induced liver injury reported”; in the series on Hepatotoxicity [2], “drug-induced liver injury reported”; with Hepatotoxicity [3], “drug-induced liver injury reported”.

For the molecule `CNCC[C@H](Oc1cccc2ccccc12)c1cccs1` [DULOXETINE], the Hepatotoxicity entry in the series on Hepatotoxicity [1] (Liver) is given as “drug-induced liver injury reported”; in the series on Hepatotoxicity [2] (Liver), “no drug-induced liver injury reported”; with Hepatotoxicity [3] (Liver), “no drug-induced liver injury reported”.

In the case of `Nc1ccn([C@@H]2CS[C@H](CO)O2)c(=O)n1` [LAMIVUDINE], the figures for the Hepatotoxicity result in the series on Hepatotoxicity [1], in the series with Hepatotoxicity [2] and in the series with Hepatotoxicity [3] were “drug-induced liver injury reported”, “no drug-induced liver injury reported” and “drug-induced liver injury reported”, respectively.

With `C[N+](C)(C)CC(=O)O` [BETAINE], the Hepatotoxicity result is “no drug-induced liver injury reported” in the series on Hepatotoxicity [1], “no drug-induced liver injury reported” with Hepatotoxicity [2] and “drug-induced liver injury reported” with Hepatotoxicity [3].

As for `O=C(O)C(S)C(S)C(=O)O` (centres undefined), the Hepatotoxicity result with Hepatotoxicity [1] is “drug-induced liver injury reported”; with Hepatotoxicity [2], “no drug-induced liver injury reported”; in the series with Hepatotoxicity [3], “drug-induced liver injury reported”.

As for `O=C[C@H](O)[C@@H](O)[C@H](O)[C@H](O)CO[C@H]1O[C@H](CO[C@H]2O[C@H](CO)[C@@H](O)[C@H](O)[C@H]2O)[C@@H](O)[C@H](O)[C@H]1O` [DEXTRAN], the results for the Hepatotoxicity entry in the series with Hepatotoxicity [1], with Hepatotoxicity [2] and in the series on Hepatotoxicity [3] were “no drug-induced liver injury reported”, “drug-induced liver injury reported” and “drug-induced liver injury reported”, respectively.

Regarding `Cc1cc(C)nc(NS(=O)(=O)c2ccc(N)cc2)n1` [SULFAMETHAZINE], the Hepatotoxicity result is “drug-induced liver injury reported” with Hepatotoxicity [1], “no drug-induced liver injury reported” in the series on Hepatotoxicity [2] and “drug-induced liver injury reported” in the series with Hepatotoxicity [3].

Consider `CCc1cccc2c3c([nH]c12)C(CC)(CC(=O)O)OCC3` (centres undefined) [ETODOLAC], for which the Hepatotoxicity entry in the series with Hepatotoxicity [1] is recorded as “drug-induced liver injury reported”; in the series with Hepatotoxicity [2], “no drug-induced liver injury reported”; in the series on Hepatotoxicity [3] it was “drug-induced liver injury reported”.

On to `C=C1/C(=C\C=C2/CCC[C@]3(C)[C@@H]([C@H](C)CCCC(C)C)CC[C@@H]23)C[C@@H](O)C[C@@H]1O` [ALFACALCIDOL], for which the results for the Hepatotoxicity result with Hepatotoxicity [1], with Hepatotoxicity [2] and in the series with Hepatotoxicity [3] were “drug-induced liver injury reported”, “no drug-induced liver injury reported” and “no drug-induced liver injury reported”, respectively.

Regarding `C[C@]12CC[C@@H]3c4ccc(O)cc4CC[C@H]3[C@@H]1CCC2=O` [ESTRONE], the results for the Hepatotoxicity result in the series with Hepatotoxicity [1], with Hepatotoxicity [2] and in the series with Hepatotoxicity [3] were “drug-induced liver injury reported”, “no drug-induced liver injury reported” and “drug-induced liver injury reported”, respectively.

Take `CC(CCc1ccccc1)NCC(O)c1ccc(O)c(C(N)=O)c1` (centres undefined) [LABETALOL]: the figures for the Hepatotoxicity result in the series with Hepatotoxicity [1], in the series with Hepatotoxicity [2] and in the series with Hepatotoxicity [3] were “drug-induced liver injury reported”, “no drug-induced liver injury reported” and “no drug-induced liver injury reported”, respectively.

Regarding `C#C[C@]1(O)CC[C@H]2[C@@H]3CCC4=Cc5oncc5C[C@]4(C)[C@H]3CC[C@@]21C` [DANAZOL], the Hepatotoxicity result in the series with Hepatotoxicity [1] is “drug-induced liver injury reported”; in the series with Hepatotoxicity [2] it was “no drug-induced liver injury reported”; with Hepatotoxicity [3] it was “no drug-induced liver injury reported”.

Consider `CC(=O)O.N=C(N)N/N=C/c1c(Cl)cccc1Cl` [GUANABENZ ACETATE], for which the Hepatotoxicity result with Hepatotoxicity [1] is given as “no drug-induced liver injury reported”; with Hepatotoxicity [2], “no drug-induced liver injury reported”; in the series on Hepatotoxicity [3], “drug-induced liver injury reported”.

Regarding `OC(Cn1cncn1)(Cn1cncn1)c1ccc(F)cc1F` [FLUCONAZOLE], the Hepatotoxicity entry is on record as “drug-induced liver injury reported” in the series on Hepatotoxicity [1] (Liver), “no drug-induced liver injury reported” in the series on Hepatotoxicity [2] (Liver) and “drug-induced liver injury reported” in the series with Hepatotoxicity [3] (Liver).

For `CNC[C@H](O)c1cccc(O)c1` [PHENYLEPHRINE], the Hepatotoxicity result in the series on Hepatotoxicity [1], with Hepatotoxicity [2] and with Hepatotoxicity [3] was “drug-induced liver injury reported” in each case.

On to `Cc1ccc(C(=O)C(C)CN2CCCCC2)cc1` (centres undefined) [TOLPERISONE], for which the Hepatotoxicity entry with Hepatotoxicity [1] is on record as “drug-induced liver injury reported”; in the series with Hepatotoxicity [2], “no drug-induced liver injury reported”; in the series with Hepatotoxicity [3], “no drug-induced liver injury reported”.

`CC(C)(Oc1ccc(CCNC(=O)c2ccc(Cl)cc2)cc1)C(=O)O` [BEZAFIBRATE]: the Hepatotoxicity entry in the series on Hepatotoxicity [1] was “drug-induced liver injury reported”; in the series on Hepatotoxicity [2], “no drug-induced liver injury reported”; in the series with Hepatotoxicity [3] it was “drug-induced liver injury reported”.
